Columns and labels:
[1] = biological target: T1, c-Abl protein tyrosine kinase (Homo sapiens, UniProt P00519); test: Test for activity against c-Abl protein tyrosine kinase (filter binding assay); assay type: biochemical; conditions: expressed as a range within which individual IC50 measurements fall
T1 construct: The His-tagged kinase domain of c-Abl is cloned and expressed in the baculovirus/Sf9 system; His; made in house; host or cells: baculovirus/Sf9
T1 sequence (P00519 242-493 limits assumed): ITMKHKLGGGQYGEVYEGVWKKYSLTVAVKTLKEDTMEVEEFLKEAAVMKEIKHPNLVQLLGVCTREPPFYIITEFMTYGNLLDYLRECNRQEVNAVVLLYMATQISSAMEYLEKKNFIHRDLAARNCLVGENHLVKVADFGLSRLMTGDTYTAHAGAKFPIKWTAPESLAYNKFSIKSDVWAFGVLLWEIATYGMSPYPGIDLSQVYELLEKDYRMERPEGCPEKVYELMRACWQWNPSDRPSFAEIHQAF
Method: Test for activity against c-Abl protein tyrosine kinase. […] The assay contains: c-Abl kinase (50 ng), 20 mM Tris-HCl, pH 7.5, 10 mM MgCl2, 10 μM Na3VO4, 1 mM DTT and 0.06 μCi/assay [γ^33P]-ATP (5 μM ATP) using 30 μg/mL poly-Ala,Glu,Lys,Tyr-6:2:5:1 (Poly-AEKY, Sigma P1152) in the presence of 1% DMSO, total volume of 30 μL. Reactions are terminated by adding 10 μL of 250 mM EDTA, and 30 μL of the reaction mixture is transferred onto Immobilon-PVDF membrane (Millipore, Bedford, Mass., USA) previously soaked for 5 min with methanol, rinsed with water, then soaked for 5 min with 0.5% H3PO4 and mounted on vacuum manifold with disconnected vacuum source. After spotting all samples, vacuum is connected and each well rinsed with 200 μL 0.5% H3PO4. Membranes are removed and washed on a shaker with 0.5% H3PO4 (4 times) and once with ethanol. Membranes are counted after drying at ambient temperature, mounting in Packard TopCount 96-well frame, and addition of 10 μL/well of Microscint™ (Packard).

p210 Bcr-Abl = biological target: T2, p210 Bcr-Abl (Homo sapiens, UniProt P00519); test: Test for activity against Bcr-Abl (Bcr-Abl phosphorylation ELISA in 32D-bcr/abl cells); assay type: cell-based; conditions: expressed as a range within which individual IC50 measurements fall
T2 construct: expressed in transfected cells; host or cells: murine myeloid progenitor cell line 32Dcl3 (32D-bcr/abl), from J. Griffin; the other entry of the earlier key: BCR (P11274, Breakpoint cluster region protein)
Text: Test for activity against Bcr-Abl. The murine myeloid progenitor cell line 32Dcl3 transfected with the p210 Bcr-Abl expression vector pGDp210Bcr/Abl (32D-bcr/abl) was obtained from J. Griffin (Dana Faber Cancer Institute, Boston, Mass., USA). The cells express the fusion Bcr-Abl protein with a constitutively active Abl kinase and proliferate growth factor independent. […] After thawing, the cells are used during maximally 10-12 passages for the experiments.
For cellular assays, compounds are dissolved in DMSO and diluted with complete medium to yield a starting concentration of 10 μM followed by preparation of serial 3-fold dilutions in complete medium. 200,000 32D-Bcr/Abl cells in 50 μL complete medium are seeded per well in 96 well round bottom tissue culture plates. 50 μL per well of serial 3-fold dilutions of the test compound are added to the cells in triplicates. Untreated cells are used as control. The compound is incubated together with the cells for 90 min at 37° C., 5% CO2, followed by centrifugation of the tissue culture plates at 1300 rpm (Beckman GPR centrifuge) and removal of the supernatants by careful aspiration taking care not to remove any of the pelleted cells. The cell pellets are lysed by addition of 150 μL lysis buffer (50 mM Tris/HCl, pH 7.4, 150 mM sodium chloride, 5 mM EDTA, 1 mM EGTA, 1% NP-40, 2 mM sodium ortho-vanadate, 1 mM PMSF, 50 μg/mL aprotinin and 80 μg/mL leupeptin) and either used immediately for the ELISA or stored frozen in the plates at −20° C. until usage.
After washing 3 times with 200 μL/well PBS containing 0.05% Tween20 (PBST) and 0.5% TopBlock (Juro), residual protein binding sites are blocked with 200 μL/well PBST, 3% TopBlock for 4 h at room temperature followed by incubation with 50 μL lysates of untreated or compound-treated cells (20 μg total protein per well) for 3-4 h at 4° C. After 3 washings, 50 μL/well anti-phosphotyrosine Ab PY20(AP) labeled with alkaline phosphatase (Zymed) diluted to 0.2 μg/mL in blocking buffer is added and incubated over night (4° C.). For all incubation steps the plates are covered with plate sealers (Costar). Finally, the plates are washed another three times with washing buffer and once with deionized water before addition of 90 μL/well of the AP-substrate CDPStar RTU with Emerald II. The plates, now sealed with Packard TopSeal™-A plate sealers, are incubated for 45 min at room temperature in the dark and luminescence is quantified by measuring counts per second (CPS) with a Packard Top Count Microplate Scintillation Counter (Top Count).
The difference between the ELISA-readout (CPS) obtained for with the lysates of the untreated 32D-Bcr/Abl cells and the readout for the assay-background (all components, but without cell lysate) is calculated and taken as 100% reflecting the constitutively phosphorylated Bcr-Abl protein present in these cells. The activity of the compound on the Bcr-Abl kinase activity is expressed as percent reduction of the Bcr-Abl phosphorylation. The values for the IC50 and IC90 are determined from the dose response curves by graphical extrapolation.

T2 sequence (P00519 28-1130 limits assumed): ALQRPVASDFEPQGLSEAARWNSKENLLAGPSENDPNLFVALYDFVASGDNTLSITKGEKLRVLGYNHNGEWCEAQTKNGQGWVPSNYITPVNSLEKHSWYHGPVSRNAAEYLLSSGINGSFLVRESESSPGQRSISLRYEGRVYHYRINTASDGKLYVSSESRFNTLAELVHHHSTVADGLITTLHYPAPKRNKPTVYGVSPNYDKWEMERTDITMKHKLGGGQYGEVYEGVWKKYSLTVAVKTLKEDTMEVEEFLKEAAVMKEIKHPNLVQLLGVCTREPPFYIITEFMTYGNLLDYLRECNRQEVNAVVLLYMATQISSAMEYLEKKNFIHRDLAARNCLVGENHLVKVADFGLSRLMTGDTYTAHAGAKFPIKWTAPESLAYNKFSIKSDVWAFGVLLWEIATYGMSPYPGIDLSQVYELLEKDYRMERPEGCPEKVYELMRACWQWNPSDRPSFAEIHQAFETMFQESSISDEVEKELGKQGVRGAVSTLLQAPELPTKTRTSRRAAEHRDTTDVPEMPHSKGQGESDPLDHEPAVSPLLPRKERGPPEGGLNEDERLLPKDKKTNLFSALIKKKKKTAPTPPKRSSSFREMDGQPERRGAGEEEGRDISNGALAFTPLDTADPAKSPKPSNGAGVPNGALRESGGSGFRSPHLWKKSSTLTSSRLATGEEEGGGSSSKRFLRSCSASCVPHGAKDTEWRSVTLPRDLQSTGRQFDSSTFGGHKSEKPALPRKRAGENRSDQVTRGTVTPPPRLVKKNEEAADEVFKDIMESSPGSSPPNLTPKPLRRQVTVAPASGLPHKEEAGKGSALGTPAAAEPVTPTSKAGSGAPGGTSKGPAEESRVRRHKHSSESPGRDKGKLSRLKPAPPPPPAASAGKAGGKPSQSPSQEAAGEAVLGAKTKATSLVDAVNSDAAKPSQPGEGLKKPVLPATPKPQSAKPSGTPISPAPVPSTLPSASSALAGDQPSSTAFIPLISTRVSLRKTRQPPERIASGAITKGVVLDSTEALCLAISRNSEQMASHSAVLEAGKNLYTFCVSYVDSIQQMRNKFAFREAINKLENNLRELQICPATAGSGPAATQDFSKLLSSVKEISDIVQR

Cc1ccc(NC(=O)c2ccc(-n3ccnc3)c(C(F)(F)F)c2)cc1Nc1nccc(-c2cccnc2)n1 [Example 6, 4-(1H-Imidazol-1-yl)-N-[4-methyl-3-[[4-(3-pyridinyl)-2-pyrimidinyl]amino]phenyl]-3-(trifluoromethyl)-benzamide]
IC50 [1]: 5 to 20 nM
IC50 (p210 Bcr-Abl): 10 to 50 nM

CCN(CC)c1ccc(C(=O)Nc2ccc(C)c(Nc3nccc(-c4cccnc4)n3)c2)cc1C(F)(F)F [Example 1, 4-Diethylamino-N-[4-methyl-3-[[4-(3-pyridinyl)-2-pyrimidinyl]amino]phenyl]-3-(trifluoromethyl)-benzamide]
IC50 [1]: 50 to 100 nM
IC50 (p210 Bcr-Abl): 200 to 500 nM

Cc1ccc(NC(=O)c2ccc(N3CCCCC3)c(C(F)(F)F)c2)cc1Nc1nccc(-c2cccnc2)n1 [Example 4, N-[4-Methyl-3-[[4-(3-pyridinyl)-2-pyrimidinyl]amino]phenyl]-4-(1-piperidinyl)-3-(trifluoromethyl)-benzamide]
IC50 [1]: 60 to 110 nM
IC50 (p210 Bcr-Abl): 80 to 200 nM

Cc1ccc(NC(=O)c2ccc(-n3ccnc3C)c(C(F)(F)F)c2)cc1Nc1nccc(-c2cccnc2)n1 [Example 7, 4-(2-Methyl-1H-imidazol-1-yl)-N-[4-methyl-3-[[4-(3-pyridinyl)-2-pyrimidinyl]amino]phenyl]-3-(trifluoromethyl)-benzamide]
IC50 [1]: 5 to 20 nM
IC50 (p210 Bcr-Abl): 10 to 50 nM

Cc1ccc(NC(=O)c2ccc(N3CCCC3)c(C(F)(F)F)c2)cc1Nc1nccc(-c2cccnc2)n1 [Example 2, N-[4-Methyl-3-[[4-(3-pyridinyl)-2-pyrimidinyl]amino]phenyl]-4-(1-pyrrolidinyl)-3-(trifluoromethyl)-benzamide]
IC50 [1]: 10 to 60 nM
IC50 (p210 Bcr-Abl): 100 to 300 nM

Cc1ccc(NC(=O)c2cc(-n3ccnc3)cc(C(F)(F)F)c2)cc1Nc1nccc(-c2cccnc2)n1 [Example 10, 3-(1H-Imidazol-1-yl)-N-[4-methyl-3-[[4-(3-pyridinyl)-2-pyrimidinyl]amino]phenyl]-5-(trifluoromethyl)-benzamide]
IC50 [1]: 5 to 20 nM
IC50 (p210 Bcr-Abl): 10 to 50 nM

CC(=O)Nc1cc(C(=O)Nc2ccc(C)c(Nc3nccc(-c4cccnc4)n3)c2)cc(C(F)(F)F)c1 [Example 18, 3-Acetylamino-N-[4-methyl-3-[[4-(3-pyridinyl)-2-pyrimidinyl]amino]phenyl]-5-(trifluoromethyl)-benzamide]
IC50 (p210 Bcr-Abl): 13 nM

Cc1ccc(NC(=O)c2ccc(N3CCN(C)CC3)c(C(F)(F)F)c2)cc1Nc1nccc(-c2cccnc2)n1 [Example 5, 4-(4-Methyl-1-piperazinyl)-N-[4-methyl-3-[[4-(3-pyridinyl)-2-pyrimidinyl]amino]phenyl]-3-(trifluoromethyl)-benzamide]
IC50 [1]: 5 to 50 nM
IC50 (p210 Bcr-Abl): 30 to 100 nM

Cc1ccc(NC(=O)c2cc(N3CCN(C)CC3)cc(C(F)(F)F)c2)cc1Nc1nccc(-c2cccnc2)n1 [Example 14, 3-(4-Methyl-1-piperazinyl)-N-[4-methyl-3-[[4-(3-pyridinyl)-2-pyrimidinyl]amino]phenyl]-5-(trifluoromethyl)-benzamide]
IC50 [1]: 5 to 20 nM
IC50 (p210 Bcr-Abl): 30 to 180 nM

Cc1ccc(NC(=O)c2ccc(N(C)CCN(C)C)c(C(F)(F)F)c2)cc1Nc1nccc(-c2cccnc2)n1 [Example 15, 4-[[2-(Dimethylamino)ethyl]methylamino]-N-[4-methyl-3-[[4-(3-pyridinyl)-2-Pyrimidinyl]amino]phenyl]-3-(trifluoromethyl)-benzamide]
IC50 [1]: 5 to 20 nM
IC50 (p210 Bcr-Abl): 50 to 200 nM

Cc1ccc(NC(=O)c2cc(-n3ccnc3C)cc(C(F)(F)F)c2)cc1Nc1nccc(-c2cccnc2)n1 [Example 11, 3-(2-Methyl-1H-imidazol-1-yl)-N-[4-methyl-3-[[4-(3-pyridinyl)-2-pyrimidinyl]amino]phenyl]-5-(trifluoromethyl)-benzamide]
IC50 [1]: 5 to 20 nM
IC50 (p210 Bcr-Abl): 10 to 50 nM

CCNc1cc(C(=O)Nc2ccc(C)c(Nc3nccc(-c4cccnc4)n3)c2)cc(C(F)(F)F)c1 [Example 17]
IC50 [1]: 10 to 70 nM
IC50 (p210 Bcr-Abl): 20 to 60 nM

Cc1ccc(NC(=O)c2ccc(N3CCOCC3)c(C(F)(F)F)c2)cc1Nc1nccc(-c2cccnc2)n1 [Example 3, N-[4-Methyl-3-[[4-(3-pyridinyl)-2-pyrimidinyl]amino]phenyl]-4-(4-morpholinyl)-3 (trifluoromethyl)-benzamide]
IC50 [1]: 40 to 100 nM
IC50 (p210 Bcr-Abl): 20 to 100 nM

Cc1ccc(NC(=O)c2cc(N3CCOCC3)cc(C(F)(F)F)c2)cc1Nc1nccc(-c2cccnc2)n1 [Example 13, N-[4-Methyl-3-[[4-(3-pyridinyl)-2-pyrimidinyl]amino]phenyl]-3-(4-morpholinyl)-5-(trifluoromethyl)-benzamide]
IC50 [1]: 5 to 20 nM
IC50 (p210 Bcr-Abl): 20 to 80 nM

Cc1cn(-c2cc(C(=O)Nc3ccc(C)c(Nc4nccc(-c5cccnc5)n4)c3)cc(C(F)(F)F)c2)cn1 [Example 12, 3-(4-Methyl-1H-imidazol-1-yl)-N-[4-methyl-3-[4-(3-pyridinyl)-2-pyrimidinyl]amino]phenyl-5-(trifluoromethyl)-benzamide]
IC50 [1]: 5 to 20 nM
IC50 (p210 Bcr-Abl): 10 to 50 nM

Cc1ccc(NC(=O)c2ccc(N(C)C3CCN(C)CC3)c(C(F)(F)F)c2)cc1Nc1nccc(-c2cccnc2)n1 [Example 16, 4-[Methyl-(1-methyl-4-piperidinyl)amino]-N-[4-methyl-3-[[4-(3-Pyridinyl)-2-pyrimidinyl]amino]phenyl]-3-(trifluoromethyl)-benzamide]
IC50 [1]: 5 to 20 nM
IC50 (p210 Bcr-Abl): 50 to 200 nM

Cc1cn(-c2ccc(C(=O)Nc3ccc(C)c(Nc4nccc(-c5cccnc5)n4)c3)cc2C(F)(F)F)c(C)n1 [Example 9, 4-(2,4-Dimethyl-1H-imidazol-1-yl)-N-[4-methyl-3-[[4-(3-pyridinyl)-2-pyrimidinyl]amino]phenyl]-3-(trifluoromethyl)-benzamide]
IC50 [1]: 5 to 20 nM
IC50 (p210 Bcr-Abl): 20 to 80 nM

Cc1cn(-c2ccc(C(=O)Nc3ccc(C)c(Nc4nccc(-c5cccnc5)n4)c3)cc2C(F)(F)F)cn1 [Example 8, 4-(4-Methyl-1H-imidazol-1-yl)-N-[4-methyl-3-[[4-(3-pyridinyl)-2-pyrimidinyl]amino]phenyl]-3-(trifluoromethyl)-benzamide]
IC50 [1]: 5 to 20 nM
IC50 (p210 Bcr-Abl): 10 to 50 nM
